Assays:
Assay type in all cases: in vivo
[1] = system: NK model in Chinchilla rabbits (ophthalmic branch (V1) of trigeminal nerve injured with sodium hydroxide); test: Tear film break-up time (TFBUT), NK rabbit model; settings: for TFBUT: X ± SEM, n = 8
Method: (§1) The NK model is established in Chinchilla rabbits by using a chemical method to destroy the ophthalmic branch (V1) of trigeminal nerve to induce NK. Briefly, animals were anesthetized. […] The trigeminal nerve was carefully separated from surrounding fasciae, and the ophthalmic nerve (V1) of trigeminal nerve was isolated and injured with sodium hydroxide solution. The V1 injury was performed for unilateral eye in each animal for 5 days prior to treatment.
(§2) A total of 16 animals were assigned randomly into two groups based on corneal ulcer areas at Day 1 prior to the treatments, and the animals received either BRM424 ophthalmic solution (OS containing 0.03% BRM424; TA-1 group) or Vehicle (TA-2 group) in the surgical eye three times daily (TID, eye drops) for 28 days. During the study period, the corneal ulcer areas, corneal fluorescein staining, corneal sensitivity, Schirmer test, and Tear film break-up time (TFBUT) at baseline (Day 0), Day 4, Day 8, Day 15, Day 22, and Day 29 were measured.

[2] = system: NK model in Chinchilla rabbits (ophthalmic branch (V1) of trigeminal nerve injured with sodium hydroxide); test: Central corneal sensitivity with Von Frey filaments, NK rabbit model; settings: for Corneal Sensitivity, Contact force (Nylon size) / Corneal Sensitivity, Contact force: X ± SEM, n = 8
Method: as §1, §2
Central corneal sensitivity was monitored using Von Frey filaments. Various forces of calibrated Von Frey filaments (0.008-300 g) were applied to the center of the cornea surface of immobilized animal. The mechanical threshold response was determined by assessing treated-eye blinking response evoked by the same calibrated Von Frey filaments twice out of three times. FIG. 4A and FIG. 4B show results for corneal sensitivity tests. Prior to the dose administration (Day 0), there was no corneal reflex in all animals, even when using the coarsest nylon filament (Force 0.008-300 g).

[3] = system: NK model in Chinchilla rabbits (ophthalmic branch (V1) of trigeminal nerve injured with sodium hydroxide); test: Corneal fluorescein staining (FL score), NK rabbit model; set-up: Fluorescein Staining Score: scale not given here; settings: for Fluorescein Staining Score: X ± SEM, n = 8
Method: as §1, §2
Cornea damage may be assessed using corneal fluorescein staining. […] The mean value of corneal fluorescein sodium staining scores at Day 0 was 3.62±0.18 for both the TA-1 and TA-2 groups and fell below 3 (TA-1=1.38±0.18, TA-2=2.36±0.42) by Day 8, indicating a quick onset of action. […] The fluorescein staining score of the TA-1 group reached 1 by Day 29.

[4] = system: NK model in Chinchilla rabbits (ophthalmic branch (V1) of trigeminal nerve injured with sodium hydroxide); test: Corneal ulceration area, slit-lamp with cobalt blue light, NK rabbit model; settings: for Corneal Ulceration Area: X ± SEM, n = 8
Method: as §1, §2
Corneal ulceration areas were measured from images taken during slit-lamp examination with cobalt blue light. […] At Day 0, the corneal ulceration areas were 25.98±1.88 mm^2 for the TA-1 group and 27.65±2.66 mm^2 for the TA-2 group, and these areas were reduced to 7.80±1.45 mm^2 and 13.30±2.36 mm^2 by Day 8 for the TA-1 group and TA-2 group, respectively.

[5] = system: NK model in Chinchilla rabbits (ophthalmic branch (V1) of trigeminal nerve injured with sodium hydroxide); test: Schirmer test for tear production, NK rabbit model; settings: for Schirmer Test: X ± SEM, n = 8
Method: as §1, §2
However, the tear volumes of the TA-1 group at Day 29 were about 2-fold higher than that at Day 0.

[6] = Day 0 (baseline, prior to treatment)
[7] = Day 4, 0.03% BRM424 ophthalmic solution TID
[8] = Day 8, 0.03% BRM424 ophthalmic solution TID
[9] = Day 15, 0.03% BRM424 ophthalmic solution TID
[10] = Day 22, 0.03% BRM424 ophthalmic solution TID
[11] = Day 29, 0.03% BRM424 ophthalmic solution TID
[12] = after 29 days of topical dose administrations
[13] = Day 0 (baseline, prior to treatment), listed as TA-1

SLGAEQRTESIIHRALYYDLISSPDIHGT (ophthalmic solution 0.03%; listed as Homo sapiens) [BRM424, PEDF-derived short peptide (PDSP), residues 93-121 of PEDF]
TFBUT [1, 6]: 5.50 ± 0.33 s
TFBUT [1, 7]: 4.88 ± 0.48 s
TFBUT [1, 8]: 6.75 ± 0.45 s
TFBUT [1, 9]: 5.13 ± 0.55 s
TFBUT [1, 10]: 4.38 ± 0.32 s
TFBUT [1, 11]: 5.38 ± 0.32 s
TFBUT, difference between TA-1 and TA-2 (vehicle) groups [1, 12]: no significant difference
Corneal Sensitivity, Contact force (Nylon size) ([2]; Day 0 (baseline, prior to treatment), Von Frey filament that triggered corneal reflex): 6.65 ± 0.00
Corneal Sensitivity, Contact force ([2]; Day 0 (baseline, prior to treatment), force that triggered corneal reflex): 300.00 ± 0.00 g
Corneal Sensitivity, Contact force [2, 7]: 300.00 ± 0.00 g
Corneal Sensitivity, Contact force (Nylon size) [2, 7]: 6.65 ± 0.00
Corneal Sensitivity, Contact force [2, 8]: 300.00 ± 0.00 g
Corneal Sensitivity, Contact force (Nylon size) [2, 8]: 6.65 ± 0.00
Corneal Sensitivity, Contact force [2, 9]: 235.75 ± 42.18 g
Corneal Sensitivity, Contact force (Nylon size) [2, 9]: 6.41 ± 0.16
Corneal Sensitivity, Contact force [2, 10]: 300.00 ± 0.00 g
Corneal Sensitivity, Contact force (Nylon size) [2, 10]: 6.65 ± 0.00
Corneal Sensitivity, Contact force [2, 11]: 189.75 ± 53.80 g
Corneal Sensitivity, Contact force (Nylon size) [2, 11]: 5.93 ± 0.35
Corneal sensation recovery compared with vehicle (TA-2) group ([2]; after 29 days of treatments): recovered faster with better improvement than the TA-2 group
Fluorescein Staining Score [3, 6]: 3.62 ± 0.18
Fluorescein Staining Score [3, 13]: 3.62±0.18
Fluorescein Staining Score ([3]; Day 4, 0.03% BRM424 ophthalmic solution, eye drops TID): 2.00 ± 0.38
Fluorescein Staining Score ([3]; Day 8, 0.03% BRM424 ophthalmic solution, eye drops TID): 1.38 ± 0.18
Fluorescein Staining Score ([3]; Day 8, 0.03% BRM424 ophthalmic solution, eye drops TID, listed as TA-1): 1.38±0.18
Fluorescein staining score, difference between TA-1 and TA-2 (vehicle) groups ([3]; Day 8 and Day 15, P<0.05): Significant difference
Fluorescein Staining Score ([3]; Day 15, 0.03% BRM424 ophthalmic solution, eye drops TID): 1.63 ± 0.36
Fluorescein Staining Score ([3]; Day 22, 0.03% BRM424 ophthalmic solution, eye drops TID): 1.25 ± 0.16
Fluorescein Staining Score ([3]; Day 29, 0.03% BRM424 ophthalmic solution, eye drops TID): 1.00 ± 0.19
Fluorescein Staining Score ([3]; Day 29, 0.03% BRM424 ophthalmic solution, eye drops TID, listed as TA-1): 1
Corneal Ulceration Area [4, 6]: 25.98 ± 1.88 mm^2
Corneal Ulceration Area [4, 13]: 25.98±1.88 mm^2
Corneal Ulceration Area ([4]; Day 4, 0.03% BRM424 ophthalmic solution, eye drops TID, surgical eye): 13.63 ± 2.51 mm^2
Corneal ulceration area reduction compared with vehicle (TA-2) group ([4]; Day 8, Day 15 and Day 29, p<0.05): more than that of TA-2 group
Corneal Ulceration Area ([4]; Day 8, 0.03% BRM424 ophthalmic solution, eye drops TID, surgical eye): 7.80 ± 1.45 mm^2
Corneal Ulceration Area ([4]; Day 8, 0.03% BRM424 ophthalmic solution, eye drops TID, surgical eye, listed as TA-1): 7.80±1.45 mm^2
Corneal Ulceration Area ([4]; Day 15, 0.03% BRM424 ophthalmic solution, eye drops TID, surgical eye): 9.93 ± 2.46 mm^2
Corneal Ulceration Area ([4]; Day 22, 0.03% BRM424 ophthalmic solution, eye drops TID, surgical eye): 7.29 ± 2.11 mm^2
Corneal Ulceration Area ([4]; Day 29, 0.03% BRM424 ophthalmic solution, eye drops TID, surgical eye): 4.81 ± 1.44 mm^2
Schirmer Test [5, 6]: 5.63 ± 0.71 mm
Schirmer Test [5, 7]: 6.00 ± 0.93 mm
Schirmer Test [5, 8]: 5.50 ± 1.02 mm
Schirmer Test [5, 9]: 6.38 ± 0.86 mm
Schirmer Test [5, 10]: 6.50 ± 1.24 mm
Schirmer Test [5, 11]: 10.75 ± 1.59 mm
Tear volumes at Day 29 relative to Day 0 ([5]; Day 29 vs Day 0, same group): about 2 fold
Tear volumes, difference between TA-1 and TA-2 (vehicle) groups [5, 12]: no significant difference
